The test system of data set [1] is women. To be noted: cited from earlier work.
For a further data set, the system named is postmenopausal women. To be noted: cited from earlier work.
The conditions of data set [2]: cited from earlier work.
Another data set can be described thus: in vitro. To be noted: human, topical or ocular.
Data set [3] deals with mice. To be noted: cited from earlier work.
A further data set has as its system uterus. The settings on record: clinical studies; cited from earlier work.
Data set [4] concerns women. The settings on record: women taking the drug, MORE trial; cited from earlier work.
The conditions of data set [5]: cited from earlier work. This is another data set of the same source.
The conditions of data set [6]: cited from earlier work. The source holds these as a separate data set.
For data set [7] the following is noted: cited from earlier work. This is another data set of the same source.
The test system of the next data set is rats. To be noted: female rats given 279 mg/kg, 2 years; cited from earlier work.
For data set [8] the following is noted: oral, cited from earlier work.
The test system of another data set is rat hepatocytes. To be noted: cited from earlier work.
The next data set concerns Chinese hamsters. To be noted: cited from earlier work.
In the next data set the test system is bacterial mutagenesis. The settings on record: with and without metabolic activation; cited from earlier work.
Data set [9] relates to Chinese hamster ovary cells. To be noted: cited from earlier work.
Data set [10] relates to mice. The settings on record: cited from earlier work. The source holds these as a separate data set.
The test system of another data set is mammalian cell mutation. The settings on record: cited from earlier work.

Values after ≈ are worked out from the molar mass of the structure shown. Where a name gives a salt, the structure may show the parent alone. Read-outs that look alike come from different tables or passages of the source.

For estrogen, in the data set on women [1] (estrogen transdermally), the “VTE rates compared to placebo group” value is “no significant difference”. Also, the “risk of VTE compared to a placebo group” value with women [1] (oral estrogen, 95 percent CI 1.8-6.8) is 3.5 fold.
As for `O=C(c1ccc(OCCN2CCCCC2)cc1)c1c(-c2ccc(O)cc2)sc2cc(O)ccc12` [Raloxifene], the “fewer uterine cancers than those assigned to tamoxifen” value in the data set on postmenopausal women (STAR trial) is listed as 36%. The “reduction of risk for invasive breast cancer” value in the data set with postmenopausal women (postmenopausal women, STAR trial interim analysis) is listed as “approximately 50%”. Besides, in data set [2], the lipophilicity (log P) is 5.749. Further, the bioavailability at 3 wt % in the data set “in vitro” is about 1%. Also, in the data set with mice [3] (female mice given 9 to 242 mg/kg, 21 months), the “incidence of ovarian tumors” value is recorded as “increased incidence”. Besides, the “incidence of prostatic leiomyoblastoma” value in the data set on mice [3] (male mice given 210 mg/kg) is “increased incidence”. The “incidence of testicular interstitial cell tumors, prostatic adenomas, and adenocarcinomas” value with mice [3] (male mice given 41 or 210 mg/kg) was “increased incidence”. Also, in the data set on uterus, the uterotrophic activity entry is listed as “does not have uterotrophic activity”. For the same compound, the “incidence of breast cancer compared with controls” value in the data set with women [4] is “lower incidence”. The “increased incidence of VTE” value in [5] (oral) is 2-4 times. Further, in data set [5] (raloxifene use), the plasma antithrombin levels result is on record as “significant reduction” and the tPA levels entry is “significant reduction”. The plasma elimination half-life in data set [6] (after oral dosing) was 27.7 h. For the same compound, in data set [6] (following intravenous administration), the clearance rate entry is listed as “approximating hepatic blood flow”. Moreover, in data set [7] (H2O), the water solubility was 0.25 µg/mL (≈ 0.528 µM). The “incidence in ovarian tumors of granulosa/theca cell origin” value in the data set on rats is on record as “increased incidence”. In data set [8], the absolute bioavailability was 2%. For the same compound, the absolute bioavailability result in data set [8] (listed as raloxifene) is on record as “approximately 2%”.
`O=C1CC[C@@]2(O)[C@H]3Cc4ccc(O)c5c4[C@@]2(CCN3CC2CC2)[C@H]1O5` [Naltrexone]: in data set [7] (water), the “solubility in water” value is listed as “water soluble”.
In the case of `O=C(c1ccc(OCCN2CCCCC2)cc1)c1c(-c2ccc(O)cc2)sc2cc(O)ccc12` [Raloxifene.HCl, raloxifene hydrochloride], in the data set with rat hepatocytes, the “genotoxicity, unscheduled DNA synthesis assay” value is listed as “not genotoxic”. In the data set with Chinese hamsters, the “genotoxicity, in vivo sister chromatid exchange assay” value is recorded as “not genotoxic”. Further, the “genotoxicity, Ames test” value in the data set with bacterial mutagenesis is on record as “not genotoxic”. Moreover, the “genotoxicity, chromosomal aberration assay” value in data set [9] is “not genotoxic”. For the same compound, in [6] (doses ranging from 30 to 150 mg), the “increase in AUC with increasing doses” value was “slightly less than a proportional increase”. Besides, in the data set with mice [10], the “genotoxicity, in vivo micronucleus test” value is recorded as “not genotoxic”. Also, in the data set on mammalian cell mutation, the “genotoxicity, mouse lymphoma assay” value is given as “not genotoxic”.

The values above are taken from US20080139513A1, “TRANSDERMAL DELIVER OF ACTIVE AGENTS” (Novavax, Inc., priority 2006, published 2008).
